The target of one assay is T1, PIM3 (Homo sapiens, UniProt Q86V86).
T1 construct: purchased SignalChem, Richmond, Canada P37-10BG
Put plainly: Biochemical radiolabeled ATP kinase assay (Reaction Biology), PIM3. To be noted: for pIC50: 10 μM ATP. An excerpt: (§1) The second assay used was Perkin Elmer's LANCE® Ultra kinase assay which uses a ULight™-labeled peptide substrate and an appropriate Europium-labeled anti-phospho antibody. When the substrate becomes phosphorylated by a kinase of interest, the phosphorylated site on the substrate is recognized by the Europium-labeled anti-phospho antibody. […] The intensity of light emission is proportional to the level of ULight peptide phosphorylation. A kinase inhibitor reduces the FRET signal, thus providing an accurate and sensitive measure of inhibition potency.
The basic biochemical assay employs radiolabeled ATP to measure the kinase-catalyzed transfer of radioactive phosphorus to a tyrosine-containing peptide substrate, according to the general equation: […]
Reaction: Substrate+[γ-^33P]−ATP→^33P-Substrate+ADP
The standard protocol used for PIM3 was performed by Reaction Biology Corporation (Malvern, Pa.) using a capture assay performed in 20 mM HEPES at pH 7.5 containing 10 mM MgCl2, 10 mM MnCl2, 1 mM EGTA, 0.02% Brij35, 0.02 mg/mL BSA, 0.1 mM Na3VO4, 2 mM DTT, 0.02% Brij35, 10 μM ATP, and 20 μM peptide substrate […]. […] Reagents were combined and incubation at 30° C. for 30 min, the reaction was initiated by adding [γ-^33P]-ATP (10 ρCi/mL [γ-^33P]-ATP) and incubated for 2 h at 30° C. The reaction was then terminated by the addition of one-third volume of stop reagent (0.25 mM EDTA and 33 mM ATP in dH20). A […] aliquot was removed, spotted onto a P-81 filternat ion exchange paper and washed sequentially with 10% (w/v) chloroacetic acid and dH20 to remove ATP. The bound ^33P-peptide substrate was quantified by scintillation counting and the disintegrations per minute (dpm) obtained, being directly proportional to the amount of ^33P-peptide produced by PIM3, were used to determine the IC50 for each compound. […]
(§2) The inhibitory activity of each compound against PIM kinases was measured with the radioisotope filter binding assay, a type of substrate phosphorylation assays, available at Reaction Biology Corporation (Mavern, Pa.).

A further assay deals with Huh7. The assay can be described thus: CellTiter-Glo cancer cell growth inhibition, Huh7. In kind it is cell-based. Conditions: Homo sapiens, Huh-7, 72 h. The text has this:
(§3) The CellTiter-Glo® Luminescent Cell Viability Assay is a sensitive homogeneous method to determine the number of viable cells in culture, Detection is based on using the luciferase reaction to measure the amount of ATP from viable cells. The amount of ATP in cells correlates with cell viability. Within minutes after a loss of membrane integrity, cells lose the ability to synthesize ATP, and endogenous ATPases destroy any remaining ATP; thus the levels of ATP fall precipitously. The CellTiter-Glo® Reagent does three things upon addition to cells. It lyses cell membranes to release ATP; it inhibits endogenous ATPases, and it provides luciferin, luciferase and other reagents necessary to measure ATP using a bioluminescent reaction. The unique properties of a proprietary stable luciferase.
(§4) All assays were performed by Reaction Biology Corporation (Malvern, Pa.) or ChemDiv, Inc. (San Diego, Calif.). All cell lines were purchased from American Type Culture Collection (ATCC, Manassas, Va.), except Huh 7 (RIKEN, Toyo, Japan) and HepaRG (Life Technologies, Carlsbad, Calif.).
(§5) Stock solutions ([…]) were diluted with cell culture media to produce 500× serial dilutions and […] of final compound dilutions were added to cells in assay plates to screen a series of 10 doses starting at […]. Final DMSO concentration was 0.2%. Assay plates are centrifuged at 100 rpm, 1 minute and kept at 37° C., 5% CO2, humidified atmosphere. […] Luminescence intensity was measured for each well using the Tecan M 1000 microplate reader after 5 min of incubation with CellTiter-Glo Reagent. The number of viable cells in culture was determined based on quantitation of the ATP present in each culture well. […] The EC50 curves were plotted and […] values were calculated using the GraphPad Prism 4 program based on a sigmoidal dose-response equation.

Assay [1] addresses T2, PIM1 (Homo sapiens, UniProt P11309).
T2 construct: purchased ProQinase, Freiburg, Germany 0186-0000-1
Put plainly: LANCE Ultra kinase assay, PIM1. In kind it is biochemical.
Excerpt: as §1
(§6) The assay was performed in 384-well plates in two steps: PIM kinases were mixed with the ULight-substrate (CREBtide) in buffer and incubated for 10 min. Subsequently, ATP and molecules of the present disclosure were added in a kinase buffer at the appropriate concentration and the reactions were incubated for 1 hour, at room temperature in the dark. • After 1 h EDTA was added to stop the kinase reaction, Eu-W1024-labeled anti-phosphoserine-CREB (Ser133) Antibody (anti-phosphoCREBtide specific antibody) was added to the reaction in LANCE Detection buffer. The mixture was allowed to incubate for 30 min to allow binding of the antibody to the phosphorylated site before the plate was read using a Tecan microplate reader
(§7) Kinase Assay Buffer—50 mM HEPES pH7.0.1 mM EGTA, 10 mM MgCl2, 0.01% BRU-35.
(§8) The inhibitory activity of each compound against PIM kinases was measured with the LANCE® Ultra Kinase Assays by ChemDiv, Inc. (San Diego, Calif.).
(Time-resolved FRET reads energy transfer from a long-lived donor to a nearby acceptor.)

The next assay deals with HepG2. The assay can be described thus: CellTiter-Glo cancer cell growth inhibition, HepG2. In kind it is cell-based, human. Conditions: Homo sapiens, HepG2, 72 h.
Excerpt: as §3, §4, §5
A general note: ATP-based viability assays read luminescence as a measure of living cells.

For assay [2], the target named is T3, PIM2 (Homo sapiens, UniProt Q9P1W9).
T3 construct: purchased ProQinase, Freiburg, Germany 0223-0000-1
The assay can be described thus: LANCE Ultra kinase assay, PIM2. Type of assay: biochemical.
Excerpt: as §1, §6, §7, §8

In assay [3] the target is T3, PIM2. Put plainly: Biochemical radiolabeled ATP kinase assay (Reaction Biology), PIM2. Conditions: 10 μM ATP. The text has this: Two different assays for measuring kinase inhibitor activity were employed for messing the effectiveness of compounds of the present disclosure for inhibiting PIM kinases. […] The second assay used was Perkin Elmer's LANCE® Ultra kinase assay which uses a ULight™-labeled peptide substrate and an appropriate Europium-labeled anti-phospho antibody. When the substrate becomes phosphorylated by a kinase of interest, the phosphorylated site on the substrate is recognized by the Europium-labeled anti-phospho antibody. […]
(§9) The standard protocol used for PIM3 was performed by Reaction Biology Corporation (Malvern, Pa.) using a capture assay performed in 20 mM HEPES at pH 7.5 containing 10 mM MgCl2, 10 mM MnCl2, 1 mM EGTA, 0.02% Brij35, 0.02 mg/mL BSA, 0.1 mM Na3VO4, 2 mM DTT, 0.02% Brij35, 10 μM ATP, and 20 μM peptide substrate […]. […] The bound ^33P-peptide substrate was quantified by scintillation counting and the disintegrations per minute (dpm) obtained, being directly proportional to the amount of ^33P-peptide produced by PIM3, were used to determine the IC50 for each compound. […]
The inhibitory activity of each compound against PIM kinases was measured with the radioisotope filter binding assay, a type of substrate phosphorylation assays, available at Reaction Biology Corporation (Mavern, Pa.). […]

Assay [4] addresses T2, PIM1. The assay can be described thus: Biochemical radiolabeled ATP kinase assay (Reaction Biology), PIM1. To be noted: 10 μM ATP.
Excerpt: The second assay used was Perkin Elmer's LANCE® Ultra kinase assay which uses a ULight™-labeled peptide substrate and an appropriate Europium-labeled anti-phospho antibody. When the substrate becomes phosphorylated by a kinase of interest, the phosphorylated site on the substrate is recognized by the Europium-labeled anti-phospho antibody. […] The intensity of light emission is proportional to the level of ULight peptide phosphorylation. A kinase inhibitor reduces the FRET signal, thus providing an accurate and sensitive measure of inhibition potency. […]
as §9, §2

A further assay relates to A673. Put plainly: CellTiter-Glo cancer cell growth inhibition, A673. In kind it is cell-based. To be noted: Homo sapiens, A673, 72 h.
Excerpt: as §3, §4, §5

Each structure is given as a SMILES string. pEC50, pIC50: −log10 of the molar value. Values joined by “and” are separate entries in the source; they are usually repeats but may differ in a detail not shown here. Equal entries are not always repeated.

Here are results for two compounds from patent US20220274997A1, “PIM KINASE INHIBITOR COMPOSITIONS AND USES THEREOF” (Snap Bio, Inc., priority 2019, published 2022).

T3 sequence (Q9P1W9 whole entry): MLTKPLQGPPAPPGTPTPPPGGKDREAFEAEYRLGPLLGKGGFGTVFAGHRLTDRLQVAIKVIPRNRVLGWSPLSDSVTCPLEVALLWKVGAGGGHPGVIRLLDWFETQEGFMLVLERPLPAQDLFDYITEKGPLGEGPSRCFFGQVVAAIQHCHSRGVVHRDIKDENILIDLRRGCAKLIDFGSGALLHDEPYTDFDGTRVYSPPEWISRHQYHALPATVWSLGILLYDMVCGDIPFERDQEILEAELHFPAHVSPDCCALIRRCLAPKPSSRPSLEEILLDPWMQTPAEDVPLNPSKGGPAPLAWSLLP
T2 sequence (P11309 whole entry): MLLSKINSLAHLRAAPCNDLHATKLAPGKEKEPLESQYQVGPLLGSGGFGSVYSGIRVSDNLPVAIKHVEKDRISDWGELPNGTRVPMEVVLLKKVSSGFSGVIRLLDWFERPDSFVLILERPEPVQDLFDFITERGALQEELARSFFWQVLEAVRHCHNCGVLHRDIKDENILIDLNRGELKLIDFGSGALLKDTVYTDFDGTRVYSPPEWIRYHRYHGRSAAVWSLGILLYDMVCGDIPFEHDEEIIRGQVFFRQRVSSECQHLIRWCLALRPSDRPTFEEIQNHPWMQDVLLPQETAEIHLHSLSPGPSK

`O=C1NC(=O)c2c1c1c3cc(F)c(O)cc3[nH]c1c1c2c2ccccc2n1CCN1CCOCC1` [Compound 18, 3-fluoro-2-hydroxy-12-(2-morpholin-4-ylethyl)-12,13-dihydro-5H-indolo[2,3-a]pyrrolo[3,4-c]carbazole-5,7(6H)-dione]: the “Selectivity among PIM1-3 (IC50 plots, FIGS. 1A-1C)” value on PIM3 is “PIM3 selectivity”. Further, the negative-log IC50 (pIC50) (usually the IC50 on a negative log10 scale, so that one unit is a factor of ten) was 9.60 at PIM3; 8.77 against PIM1 [1] (ATP 1 mM); 7.39 against PIM2 [2] (ATP 1 mM); 8.15 and 8.13 at PIM2 [3]; 8.74 against PIM1 [4]. Further, the results for the pEC50 in the assay with Huh7 and with HepG2 were 7.39 and 7.12, respectively.
For `O=C1NC(=O)c2c1c1c3ccccc3[nH]c1c1c2c2cc(F)c(O)cc2n1CCN1CCOCC1` [Compound 19, 3-fluoro-2-hydroxy-13-(2-morpholin-4-ylethyl)-12,13-dihydro-5H-indolo[2,3-a]pyrrolo[3,4-c]carbazole-5,7(6H)-dione], the pIC50 on PIM3 is 9.70; against PIM1 [1] (ATP 0.1 mM), 9.64; on PIM1 [1] (ATP 1 mM) it was 9.09; against PIM2 [2] (ATP 0.1 mM), 8.49; on PIM2 [2] (ATP 1 mM) it was 8.31; at PIM2 [3] it was 8.17. The compound also gave a pIC50 against PIM1 [4] of 9.01. Also, the results for the pEC50 in the assay on A673, in the assay with Huh7 and in the assay on HepG2 were 8.00, 7.10 and 7.47, respectively.
